Measurements published in US8404618B2, “Herbicidal composition” (priority 2004, dated 2013).

Key:
Format in all cases: in vivo
maize (Marista 11f) = assay: Post-emergent test on maize (safener action); conditions: post-emergent (GS 11), evaluated after 28 days
Procedure: The test plants are sown in containers under glasshouse conditions. A standard earth is used as the culture substrate. In a maize growth stage of one leaf (GS 11), the herbicides are applied both by themselves and in a mixture with safeners to the soil and leaf surface. The application is carried out with an aqueous suspension of the test substances, prepared from a 25% wettable powder (Example F3,b) or a suspension concentrate (Example F8), to achieve a field equivalent of 200 l/ha. The tests are evaluated after 28 days (100%=plants completely dead; 0%=no phytotoxic action on the plants).

wheat = assay: Pre-emergent test on wheat (safener action); conditions: after 14 days, average value of two repetitions
Procedure: The test plants are sown in 48 well plates in a growth chamber. A sterilized standard earth is used as the culture substrate. In a pre-emergent stage, the herbicides are applied both by themselves and in a mixture with safeners to the soil surface. The application is carried out with an aqueous suspension of the test substances, prepared from a 25% wettable powder (Example F3,b), to achieve a field equivalent of 375 l/ha. The tests are evaluated after 14 days (100%=plants completely dead; 0%=no phytotoxic action on the plants).

maize = assay: Pre-emergent test on maize (safener action); conditions: evaluated after 14 days
Procedure: The test plants are sown in seed troughs under greenhouse conditions. A standard earth is used as the culture substrate. In a pre-emergent stage, the herbicides are applied both by themselves and in a mixture with safeners to the soil surface. […] The tests are evaluated after 14 days (100%=plants completely dead; 0%=no phytotoxic action on the plants).

`Cn1nc(C(F)(F)F)c(CS(=O)(=O)C2=NOC(C)(C)C2)c1OC(F)F` [Comp. 1.27, 3-(5-difluoromethoxy-1-methyl-3-trifluoromethyl-1H-pyrazol-4-ylmethylsulfonyl)-5,5-dimethyl-4,5-dihydroisoxazole] was tested, and the “phytotoxic action on the plants (100%=plants completely dead; 0%=no phytotoxic action)” value (maize (Marista 11f); herbicide alone 37.5 g/ha) was 0%, the “phytotoxic action on the plants (100%=plants completely dead; 0%=no phytotoxic action)” value (maize (Marista 11f); herbicide alone 75 g/ha) was 10% and the “phytotoxic action on the plants (100%=plants completely dead; 0%=no phytotoxic action)” value (maize (Marista 11f); herbicide alone 150 g/ha) was 40%. The “phytotoxic action on the plants (100%=plants completely dead; 0%=no phytotoxic action)” value (wheat; herbicide alone 100 g/ha) was 25% and the “phytotoxic action on the plants (100%=plants completely dead; 0%=no phytotoxic action)” value (wheat; herbicide alone 200 g/ha) was 50%.

`Cn1nc(C(F)(F)F)c(C[S+]([O-])C2=NOC(C)(C)C2)c1OC(F)F` (stereo not drawn) [Comp. 1.57] was tested, and the “phytotoxic action on the plants (100%=plants completely dead; 0%=no phytotoxic action)” value (wheat; herbicide alone 100 g/ha) was 90%.

For `CC1(C)CC(S(=O)(=O)Cc2c(F)cccc2F)=NO1` [Comp. 1.41], the “phytotoxic action on the plants (100%=plants completely dead; 0%=no phytotoxic action)” value (maize; herbicide alone 250 g/ha) was 30%, the “phytotoxic action on the plants (100%=plants completely dead; 0%=no phytotoxic action)” value (maize; herbicide alone 500 g/ha) was 70% and the “phytotoxic action on the plants (100%=plants completely dead; 0%=no phytotoxic action)” value (maize; herbicide alone 1000 g/ha) was 80%.
